Test results as given in PubChem BioAssay (NCI).
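Where inhibition never reached the appropriate level, the endpoint shown equals the highest concentration tested. Otherwise, values were interpolated linearly from a five-concentration, 48-hour dose response in 96-well plates. Here, GI50 denotes the concentration required for 50% inhibition of growth. TGI: total growth inhibition.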

Key:
Assay in all cases: inhibition of tumour cell growth, NCI panel, 48 h
[1] = tested on: MDA-MB-231 breast
[2] = tested on: HCC-2998 colon
[3] = tested on: U251 CNS
[4] = tested on: HT29 colon
[5] = tested on: PC-3 prostate
[6] = tested on: UACC-257 melanoma
[7] = tested on: M14 melanoma
[8] = tested on: HOP-92 NSCLC
[9] = tested on: EKVX NSCLC
[10] = tested on: UACC-62 melanoma
[11] = tested on: UO-31 renal
[12] = tested on: NCI/ADR-RES ovarian
[13] = tested on: KM12 colon
[14] = tested on: IGROV1 ovarian
[15] = tested on: A549 NSCLC
[16] = tested on: SK-MEL-5 melanoma
[17] = tested on: SW-620 colon
[18] = tested on: SR leukemia
[19] = tested on: MCF7 breast
[20] = tested on: HOP-62 NSCLC
[21] = tested on: LOX IMVI melanoma
[22] = tested on: RXF 393 renal
[23] = tested on: NCI-H23 lung
[24] = tested on: NCI-H226 lung
[25] = tested on: SNB-75 CNS
[26] = tested on: CAKI-1 renal
[27] = tested on: A498 renal
[28] = tested on: T-47D breast
[29] = tested on: BT-549 breast
[30] = tested on: OVCAR-5 ovarian
[31] = tested on: HCT-116 colon
[32] = tested on: ACHN renal
[33] = tested on: SK-OV-3 ovarian
[34] = tested on: SNB-19 CNS
[35] = tested on: MOLT-4 leukemia
[36] = tested on: TK-10 renal
[37] = tested on: SF-268 CNS
[38] = tested on: OVCAR-8 ovarian
[39] = tested on: HS 578T breast
[40] = tested on: SF-539 CNS
[41] = tested on: HCT-15 colon
[42] = tested on: MDA-MB-435
[43] = tested on: SK-MEL-2 melanoma
[44] = tested on: RPMI-8226 leukemia
[45] = tested on: OVCAR-3 ovarian
[46] = tested on: SN12C renal
[47] = tested on: K-562 leukemia
[48] = tested on: SK-MEL-28 melanoma
[49] = tested on: COLO 205 colon
[50] = tested on: HL-60(TB) leukemia
[51] = tested on: CCRF-CEM leukemia
[52] = tested on: NCI-H460 lung
[53] = tested on: OVCAR-4 ovarian
[54] = tested on: DU-145 prostate
[55] = tested on: 786-0 renal
[56] = tested on: MALME-3M melanoma
[57] = tested on: NCI-H522 lung

Structure (SMILES): Cc1cc(I)cc(CN(CCCN(C)C)C(C)C)c1O
- GI50 [1]: 18.1 µM
- TGI [1]: 43.6 µM
- GI50 [2]: 16.5 µM
- TGI [2]: 30.6 µM
- GI50 [3]: 18.5 µM
- TGI [3]: 36.1 µM
- GI50 [4]: 9.23 µM
- TGI [4]: 21.2 µM
- GI50 [5]: 14 µM
- TGI [5]: 30.4 µM
- GI50 [6]: 16.7 µM
- TGI [6]: 32.5 µM
- GI50 [7]: 16.2 µM
- TGI [7]: 31 µM
- GI50 [8]: 5.77 µM
- TGI [8]: 31.9 µM
- GI50 [9]: 18.3 µM
- TGI [9]: 42.9 µM
- GI50 [10]: 15.2 µM
- TGI [10]: 33.7 µM
- GI50 [11]: 14.5 µM
- TGI [11]: 32.6 µM
- GI50 [12]: 23.1 µM
- TGI [12]: 61.6 µM
- GI50 [13]: 18 µM
- TGI [13]: 36 µM
- GI50 [14]: 15.9 µM
- TGI [14]: 31.7 µM
- GI50 [15]: 18.2 µM
- TGI [15]: 39.6 µM
- GI50 [16]: 16.4 µM
- TGI [16]: 30.2 µM
- GI50 [17]: 17.3 µM
- TGI [17]: 31.6 µM
- GI50 [18]: 15.9 µM
- TGI [18]: 35.8 µM
- GI50 [19]: 18.8 µM
- TGI [19]: 36 µM
- GI50 [20]: 16.1 µM
- TGI [20]: 30.6 µM
- GI50 [21]: 15 µM
- TGI [21]: 28.6 µM
- GI50 [22]: 16 µM
- TGI [22]: 46.8 µM
- GI50 [23]: 31.4 µM
- TGI [23]: > 100 µM
- GI50 [24]: 25.7 µM
- TGI [24]: > 100 µM
- GI50 [25]: 16.6 µM
- TGI [25]: 36.3 µM
- GI50 [26]: 16.5 µM
- TGI [26]: 33.6 µM
- GI50 [27]: 21 µM
- TGI [27]: 37.8 µM
- GI50 [28]: 15.2 µM
- TGI [28]: 39.8 µM
- GI50 [29]: 11.5 µM
- TGI [29]: 23.9 µM
- GI50 [30]: 19.7 µM
- TGI [30]: 53.5 µM
- GI50 [31]: 12.6 µM
- TGI [31]: 25.1 µM
- GI50 [32]: 17.3 µM
- TGI [32]: 31.6 µM
- GI50 [33]: 15.1 µM
- TGI [33]: 30.9 µM
- GI50 [34]: 18.4 µM
- TGI [34]: 42.5 µM
- GI50 [35]: 16.3 µM
- TGI [35]: 34.7 µM
- GI50 [36]: 18.2 µM
- TGI [36]: 33.1 µM
- GI50 [37]: 17.1 µM
- TGI [37]: 32.9 µM
- GI50 [38]: 31.6 µM
- TGI [38]: > 100 µM
- GI50 [39]: 18.1 µM
- TGI [39]: 35.6 µM
- GI50 [40]: 15.3 µM
- TGI [40]: 29.1 µM
- GI50 [41]: 17.5 µM
- TGI [41]: 39.5 µM
- GI50 [42]: 17.3 µM
- TGI [42]: 35.9 µM
- GI50 [43]: 18.2 µM
- TGI [43]: 35.7 µM
- GI50 [44]: 11.5 µM
- TGI [44]: 26.7 µM
- GI50 [45]: 18.8 µM
- TGI [45]: 34.8 µM
- GI50 [46]: 37.8 µM
- TGI [46]: > 100 µM
- GI50 [47]: 16.3 µM
- TGI [47]: 34.7 µM
- GI50 [48]: 16.5 µM
- TGI [48]: 34.3 µM
- GI50 [49]: 14.7 µM
- TGI [49]: 27.8 µM
- GI50 [50]: 18.2 µM
- TGI [50]: 36 µM
- GI50 [51]: 0.116 µM
- TGI [51]: 1.03 µM
- GI50 [52]: 15.9 µM
- TGI [52]: 29.8 µM
- GI50 [53]: 37.2 µM
- TGI [53]: > 100 µM
- GI50 [54]: 16.1 µM
- TGI [54]: 29.6 µM
- GI50 [55]: 15.7 µM
- TGI [55]: 30.5 µM
- GI50 [56]: 21.6 µM
- TGI [56]: 40.8 µM
- GI50 [57]: 16 µM
- TGI [57]: 31.4 µM
